# Results: the supplement of paper PMC10307832
# Tests used:
# Experiment in all cases: relative viability (nuclei count vs DMSO), 5 days (fraction); higher = more cells survive
# ChaGo-K-1 = system: ChaGo-K-1
# Method in brief: (§1)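 Dosing by pin tool came one day after lung cancer cell lines were seeded in 1536-well plates, using either one drug or a fixed anchor-drug dose plus five library-drug doses (not always all listed) in √10 steps. After 5 days, nuclei were counted on 4× images. Relative viability is treated-well nuclei count divided by vehicle-well nuclei count, and values are medians of duplicate plates.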
# HARA = system: HARA
# Method in brief: as §1
# NCI-H441 = system: NCI-H441
# Method in brief: as §1
# HCC-827 = system: HCC-827
# Method in brief: as §1
# LCLC-97TM1 = system: LCLC-97TM1
# Method in brief: as §1
# NCI-H1437 = system: NCI-H1437
# Method in brief: as §1
# NCI-H322M = system: NCI-H322M
# Method in brief: as §1
# EMC-BAC-2 = system: EMC-BAC-2
# Method in brief: as §1
# PC-3 [JPC-3] = system: PC-3 [JPC-3]
# Method in brief: as §1
# NCI-H460 = system: NCI-H460
# Method in brief: as §1
# NCI-H661 = system: NCI-H661
# Method in brief: as §1
# EKVX = system: EKVX
# Method in brief: as §1
# H3255 = system: H3255
# Method in brief: as §1
# NCI-H1915 = system: NCI-H1915
# Method in brief: as §1
# HCC-15 = system: HCC-15
# Method in brief: as §1
# NCI-H1793 = system: NCI-H1793
# Method in brief: as §1
# LU99A = system: LU99A
# Method in brief: as §1
# NCI-H1944 = system: NCI-H1944
# Method in brief: as §1
# LC-2-ad = system: LC-2-ad
# Method in brief: as §1
# NCI-H1792 = system: NCI-H1792
# Method in brief: as §1
# NCI-H2126 = system: NCI-H2126
# Method in brief: as §1
# SK-LU-1 = system: SK-LU-1
# Method in brief: as §1
# NCI-H23 = system: NCI-H23
# Method in brief: as §1
structure (smiles),measurement,setting,value
Cc1cnc(-c2cnc(NCCNc3ccc(C#N)cn3)nc2-c2ccc(Cl)cc2Cl)[nH]1 + Nc1ncn([C@H]2C[C@H](O)[C@@H](CO)O2)c(=O)n1 [Decitabine] (partner 2 µM),relative viability,ChaGo-K-1; first compound 0.08 µM,0.546
same,relative viability,ChaGo-K-1; first compound 0.253 µM,0.485
same,relative viability,ChaGo-K-1; first compound 0.8 µM,0.499
same,relative viability,ChaGo-K-1; first compound 2.53 µM,0.466
same,relative viability,HARA; first compound 0.08 µM,0.654
same,relative viability,HARA; first compound 0.253 µM,0.471
same,relative viability,HARA; first compound 0.8 µM,0.553
same,relative viability,HARA; first compound 2.53 µM,0.642
same,relative viability,NCI-H441; first compound 0.08 µM,0.238
same,relative viability,NCI-H441; first compound 0.8 µM,0.251
same,relative viability,NCI-H441; first compound 2.53 µM,0.255
same,relative viability,HCC-827; first compound 0.08 µM,0.328
same,relative viability,HCC-827; first compound 0.253 µM,0.299
same,relative viability,HCC-827; first compound 0.8 µM,0.326
same,relative viability,HCC-827; first compound 2.53 µM,0.287
same,relative viability,LCLC-97TM1; first compound 0.08 µM,0.213
same,relative viability,LCLC-97TM1; first compound 0.253 µM,0.248
same,relative viability,LCLC-97TM1; first compound 0.8 µM,0.235
same,relative viability,LCLC-97TM1; first compound 2.53 µM,0.227
same,relative viability,NCI-H1437; first compound 0.08 µM,0.538
same,relative viability,NCI-H1437; first compound 0.253 µM,0.511
same,relative viability,NCI-H1437; first compound 0.8 µM,0.558
same,relative viability,NCI-H1437; first compound 2.53 µM,0.563
same,relative viability,NCI-H322M; first compound 0.08 µM,0.654
same,relative viability,NCI-H322M; first compound 0.253 µM,0.655
same,relative viability,NCI-H322M; first compound 0.8 µM,0.567
same,relative viability,NCI-H322M; first compound 2.53 µM,0.726
same,relative viability,EMC-BAC-2; first compound 0.08 µM,1.15
same,relative viability,EMC-BAC-2; first compound 0.253 µM,0.911
same,relative viability,EMC-BAC-2; first compound 0.8 µM,0.912
same,relative viability,EMC-BAC-2; first compound 2.53 µM,0.995
same,relative viability,PC-3 [JPC-3]; first compound 0.08 µM,0.777
same,relative viability,PC-3 [JPC-3]; first compound 0.253 µM,0.825
same,relative viability,PC-3 [JPC-3]; first compound 0.8 µM,0.785
same,relative viability,PC-3 [JPC-3]; first compound 2.53 µM,0.791
same,relative viability,NCI-H460; first compound 0.08 µM,0.537
same,relative viability,NCI-H460; first compound 0.253 µM,0.454
same,relative viability,NCI-H460; first compound 0.8 µM,0.54
same,relative viability,NCI-H460; first compound 2.53 µM,0.488
same,relative viability,NCI-H661; first compound 0.08 µM,0.609
same,relative viability,NCI-H661; first compound 0.253 µM,0.545
same,relative viability,NCI-H661; first compound 0.8 µM,0.569
same,relative viability,NCI-H661; first compound 2.53 µM,0.551
same,relative viability,EKVX; first compound 0.08 µM,0.386
same,relative viability,EKVX; first compound 0.253 µM,0.315
same,relative viability,EKVX; first compound 0.8 µM,0.34
same,relative viability,EKVX; first compound 2.53 µM,0.351
same,relative viability,H3255; first compound 0.08 µM,0.765
same,relative viability,H3255; first compound 0.253 µM,0.531
same,relative viability,H3255; first compound 0.8 µM,0.551
same,relative viability,H3255; first compound 2.53 µM,0.567
same,relative viability,NCI-H1915; first compound 0.08 µM,0.275
same,relative viability,NCI-H1915; first compound 0.8 µM,0.286
same,relative viability,NCI-H1915; first compound 2.53 µM,0.264
same,relative viability,HCC-15; first compound 0.08 µM,0.701
same,relative viability,HCC-15; first compound 0.253 µM,0.588
same,relative viability,HCC-15; first compound 0.8 µM,0.756
same,relative viability,HCC-15; first compound 2.53 µM,0.704
same,relative viability,NCI-H1793; first compound 0.08 µM,0.494
same,relative viability,NCI-H1793; first compound 0.253 µM,0.514
same,relative viability,NCI-H1793; first compound 0.8 µM,0.583
same,relative viability,NCI-H1793; first compound 2.53 µM,0.541
same,relative viability,LU99A; first compound 0.08 µM,0.954
same,relative viability,LU99A; first compound 0.253 µM,0.873
same,relative viability,LU99A; first compound 0.8 µM,0.938
same,relative viability,LU99A; first compound 2.53 µM,0.775
same,relative viability,NCI-H1944; first compound 0.08 µM,0.476
same,relative viability,NCI-H1944; first compound 0.8 µM,0.5
same,relative viability,NCI-H1944; first compound 2.53 µM,0.402
same,relative viability,LC-2-ad; first compound 0.08 µM,0.791
same,relative viability,LC-2-ad; first compound 0.8 µM,0.885
same,relative viability,LC-2-ad; first compound 2.53 µM,0.776
same,relative viability,NCI-H1792; first compound 0.08 µM,0.564
same,relative viability,NCI-H1792; first compound 0.253 µM,0.476
same,relative viability,NCI-H1792; first compound 0.8 µM,0.542
same,relative viability,NCI-H1792; first compound 2.53 µM,0.469
same,relative viability,NCI-H2126; first compound 0.08 µM,0.585
same,relative viability,NCI-H2126; first compound 0.253 µM,0.602
same,relative viability,NCI-H2126; first compound 0.8 µM,0.539
same,relative viability,NCI-H2126; first compound 2.53 µM,0.58
same,relative viability,SK-LU-1; first compound 0.08 µM,0.645
same,relative viability,SK-LU-1; first compound 0.253 µM,0.478
same,relative viability,SK-LU-1; first compound 0.8 µM,0.688
same,relative viability,SK-LU-1; first compound 2.53 µM,0.711
same,relative viability,NCI-H23; first compound 0.08 µM,0.382
same,relative viability,NCI-H23; first compound 0.253 µM,0.293
same,relative viability,NCI-H23; first compound 0.8 µM,0.323
same,relative viability,NCI-H23; first compound 2.53 µM,0.387
